Reference: patent US10508104B2, “6-hydroxy-5-(phenyl/heteroarylsulfonyl)pyrimidin-4(1H)-one as APJ agonists” (Bristol-Myers Squibb Company, priority 2016, dated 2019)

Target: human APJ receptor (Homo sapiens (Human), UniProt P35414)
Test: Intracellular cAMP accumulation assay (APJ hcAMP, HTRF)
Type: cell-based
Details: HEK293 cells stably expressing human APJ receptor; inhibition of forskolin-mediated cAMP production; read-out: Human APJ cAMP EC50 Potency range
Procedure, shortened: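 HEK293 cells stably expressing human APJ, 5,000 per well, incubated 30 min at rt with compound, […] and 2 μM forskolin. cAMP measured by HTRF against a cAMP standard curve as inhibition of forskolin-driven production. EC50 from variable-slope sigmoidal fit.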

human APJ receptor, sequence (P35414 whole entry): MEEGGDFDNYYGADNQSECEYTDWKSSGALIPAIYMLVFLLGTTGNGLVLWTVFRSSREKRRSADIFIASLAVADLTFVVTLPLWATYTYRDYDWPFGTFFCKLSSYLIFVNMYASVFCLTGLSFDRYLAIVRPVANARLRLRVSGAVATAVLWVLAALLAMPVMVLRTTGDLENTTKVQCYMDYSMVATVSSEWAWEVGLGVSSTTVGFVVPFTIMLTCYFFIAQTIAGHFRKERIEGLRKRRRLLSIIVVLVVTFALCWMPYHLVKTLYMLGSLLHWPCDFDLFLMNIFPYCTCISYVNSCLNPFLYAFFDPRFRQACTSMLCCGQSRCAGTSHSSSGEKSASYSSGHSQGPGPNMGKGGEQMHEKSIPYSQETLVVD

| Structure (SMILES) | EC50 [nM] |
| --- | --- |
| CC(C)OCc1nc(=O)c(S(=O)(=O)c2ccc(-c3ccc(F)cc3C(N)=O)cc2)c(O)n1[C@H](c1cccc(C#N)c1)C1CC1 [Example 417, 4′-({1-[(S)-(3-cyanophenyl)(cyclopropyl)methyl]-6-hydroxy-4-oxo-2-[(propan-2-yloxy)methyl]-1,4-dihydropyrimidin-5-yl}sulfonyl)-4-fluoro-[1,1′-biphenyl]-2-carboxamide] | 0.01 to 10 |
| CC(C)OCc1nc(=O)c(S(=O)(=O)c2ccc(-c3ccccc3C(N)=O)cc2)c(O)n1[C@H](c1cccc(C#N)c1)C1CC1 [Example 418, 4′-({1-[(S)-(3-cyanophenyl)(cyclopropyl)methyl]-6-hydroxy-4-oxo-2-[(propan-2-yloxy)methyl]-1,4-dihydropyrimidin-5-yl}sulfonyl)-[1,1′-biphenyl]-2-carboxamide] | 0.01 to 10 |
| Cc1c(-c2ccc(S(=O)(=O)c3c(O)n([C@H](c4cccc(C#N)c4)C4CC4)c(COC(C)C)nc3=O)cc2)ccnc1F [Example 419, 3-[(S)-cyclopropyl({5-[4-(2-fluoro-3-methylpyridin-4-yl)benzenesulfonyl]-6-hydroxy-4-oxo-2-[(propan-2-yloxy)methyl]-1,4-dihydropyrimidin-1-yl})methyl]benzonitrile] | 0.01 to 10 |
| CCCCc1nc(=O)c(S(=O)(=O)c2ccc(-c3cccnc3C)cc2)c(O)n1[C@@H](CC)c1ccc(F)cc1 [Example 425, 2-butyl-1-[(1S)-1-(4-fluorophenyl)propyl]-6-hydroxy-5-[4-(2-methylpyridin-3-yl)benzenesulfonyl]-1,4-dihydropyrimidin-4-one] | 0.01 to 10 |
| CCCCc1nc(=O)c(S(=O)(=O)c2ccc(-c3ccncc3C)cc2)c(O)n1[C@@H](CC)c1cc(F)cc(F)c1 [Example 427, 2-butyl-1-[(1S)-1-(3,5-difluorophenyl)propyl]-6-hydroxy-5-[4-(3-methylpyridin-4-yl)benzenesulfonyl]-1,4-dihydropyrimidin-4-one] | 0.01 to 10 |
| CCCCc1nc(=O)c(S(=O)(=O)c2ccc(-c3cccnc3C)cc2)c(O)n1[C@@H](CC)c1ccccc1F [Example 430, 2-butyl-1-[(1S)-1-(2-fluorophenyl)propyl]-6-hydroxy-5-[4-(2-methylpyridin-3-yl)benzenesulfonyl]-1,4-dihydropyrimidin-4-one] | 0.01 to 10 |
| CCCCc1nc(=O)c(S(=O)(=O)c2ccc(-c3ccc(F)nc3C)cc2)c(O)n1[C@@H](CC)c1cc(F)cc(F)c1 [Example 433, 2-butyl-1-[(1S)-1-(3,5-difluorophenyl)propyl]-5-[4-(6-fluoro-2-methylpyridin-3-yl)benzenesulfonyl]-6-hydroxy-1,4-dihydropyrimidin-4-one] | 0.01 to 10 |
| CCOCc1nc(=O)c(S(=O)(=O)c2ccc(-c3ccncc3C)cc2)c(O)n1[C@@H](CC)c1cccc(C#N)c1 [Example 434, 3-[(1S)-1-[2-(ethoxymethyl)-6-hydroxy-5-[4-(3-methylpyridin-4-yl)benzenesulfonyl]-4-oxo-1,4-dihydropyrimidin-1-yl]propyl]benzonitrile] | 0.01 to 10 |
| CCCCc1nc(=O)c(S(=O)(=O)c2ccc(-c3ccnc(F)c3C)cc2)c(O)n1[C@@H](CC)c1ccc(F)c(C#N)c1 [Example 438, 5-[(1S)-1-{2-butyl-5-[4-(2-fluoro-3-methylpyridin-4-yl)benzenesulfonyl]-6-hydroxy-4-oxo-1,4-dihydropyrimidin-1-yl}propyl]-2-fluorobenzonitrile] | 0.01 to 10 |
| CCCCc1nc(=O)c(S(=O)(=O)c2ccc(-c3cccnc3C)cc2)c(O)n1[C@@H](CC)c1ccc(F)c(C#N)c1 [Example 439, 5-[(1S)-1-{2-butyl-6-hydroxy-5-[4-(2-methylpyridin-3-yl)benzenesulfonyl]-4-oxo-1,4-dihydropyrimidin-1-yl}propyl]-2-fluorobenzonitrile] | 0.01 to 10 |
| CCCCc1nc(=O)c(S(=O)(=O)c2ccc(-c3ccc(F)nc3C)cc2)c(O)n1[C@@H](CC)c1ccc(F)c(C#N)c1 [Example 440, 5-[(1S)-1-{2-butyl-5-[4-(6-fluoro-2-methylpyridin-3-yl)benzenesulfonyl]-6-hydroxy-4-oxo-1,4-dihydropyrimidin-1-yl}propyl]-2-fluorobenzonitrile] | 0.01 to 10 |
| CC[C@@H](c1cccc(C#N)c1)n1c(CC2CC2)nc(=O)c(S(=O)(=O)c2ccc(-c3ccncc3C)cc2)c1O [Example 441, 3-[(1S)-1-[2-(cyclopropylmethyl)-6-hydroxy-5-[4-(3-methylpyridin-4-yl)benzenesulfonyl]-4-oxo-1,4-dihydropyrimidin-1-yl]propyl]benzonitrile] | 0.01 to 10 |

Next, values leading:

| EC50 [nM] | Structure (SMILES) |
| --- | --- |
| 0.01 to 10 | CNC(=O)c1ccccc1-c1ccc(S(=O)(=O)c2c(O)n([C@H](c3cccc(C#N)c3)C3CC3)c(COC(C)C)nc2=O)cc1 [Example 420, 4′-({1-[(S)-(3-cyanophenyl)(cyclopropyl)methyl]-6-hydroxy-4-oxo-2-[(propan-2-yloxy)methyl]-1,4-dihydropyrinudin-5-yl}sulfonyl)-N-methyl-[1,1′-biphenyl]-2-carboxamide] |
| 0.01 to 10 | CCOCc1nc(=O)c(S(=O)(=O)c2ccc(-c3ccccc3C(=O)NC)cc2)c(O)n1[C@H]1CCc2ccccc21 [Example 421, 4′-({1-[(1S)-2,3-dihydro-1H-inden-1-yl]-2-(ethoxymethyl)-6-hydroxy-4-oxo-1,4-dihydropyrimidin-5-yl}sulfonyl)-N-methy1-[1,1′-biphenyl]-2-carboxamide] |
| 0.01 to 10 | CC[C@@H](c1ccccc1)n1c(COC(C)C)nc(=O)c(S(=O)(=O)c2ccc(-c3ccccc3C(=O)NC)cc2)c1O [Example 422, 4′-({6-hydroxy-4-oxo-1-[(1S)-1-phenylpropyl]-2-[(propan-2-yloxy)methyl]-1,4-dihydropyrimidin-5-yl}sulfonyl)-N-methy1-[1,1′-biphenyl]-2-carboxamide] |
| 0.01 to 10 | CCCCc1nc(=O)c(S(=O)(=O)c2ccc(-c3ccncc3C)cc2)c(O)n1[C@@H](CC)c1ccc(F)cc1 [Example 423, 2-butyl-1-[(1S)-1-(4-fluorophenyl)propyl]-6-hydroxy-5-[4-(3-methylpyridin-4-yl)benzenesulfonyl]-1,4-dihydropyrimidin-4-one] |
| 0.01 to 10 | CCCCc1nc(=O)c(S(=O)(=O)c2ccc(-c3ccnc(F)c3C)cc2)c(O)n1[C@@H](CC)c1ccc(F)cc1 [Example 424, 2-butyl-5-[4-(2-fluoro-3-methylpyridin-4-yl)benzenesulfonyl]-1-[(1S)-1-(4-fluorophenyl)propyl]-6-hydroxy-1,4-dihydropyrimidin-4-one] |
| 0.01 to 10 | CCCCc1nc(=O)c(S(=O)(=O)c2ccc(-c3ccc(F)nc3C)cc2)c(O)n1[C@@H](CC)c1ccc(F)cc1 [Example 426, 2-butyl-5-[4-(6-fluoro-2-methylpyridin-3-yl)benzenesulfonyl]-1-[(1S)-1-(4-fluorophenyl)propyl]-6-hydroxy-1,4-dihydropyrimidin-4-one] |
| 0.01 to 10 | CCCCc1nc(=O)c(S(=O)(=O)c2ccc(-c3ccc(F)nc3C)cc2)c(O)n1[C@@H](CC)c1ccccc1F [Example 431, 2-butyl-5-[4-(6-fluoro-2-methylpyridin-3-yl)benzenesulfonyl]-1-[(1S)-1-(2-fluorophenyl)propyl]-6-hydroxy-1,4-dihydropyrimidin-4-one] |
| 0.01 to 10 | CCCCc1nc(=O)c(S(=O)(=O)c2ccc(-c3ccnc(F)c3C)cc2)c(O)n1[C@@H](CC)c1ccccc1F [Example 432, 2-butyl-5-[4-(2-fluoro-3-methylpyridin-4-yl)benzenesulfonyl]-1-[(1S)-1-(2-fluorophenyl)propyl]-6-hydroxy-1,4-dihydropyrimidin-4-one] |
| 0.01 to 10 | CCOCc1nc(=O)c(S(=O)(=O)c2ccc(-c3cccnc3C)cc2)c(O)n1[C@@H](CC)c1cccc(C#N)c1 [Example 435, 3-[(1S)-1-[2-(ethoxymethyl)-6-hydroxy-5-[4-(2-methylpyridin-3-yl)benzenesulfonyl]-4-oxo-1,4-dihydropyrimidin-1-yl]propyl]benzonitrile] |
| 0.01 to 10 | CCOCc1nc(=O)c(S(=O)(=O)c2ccc(-c3ccc(F)nc3C)cc2)c(O)n1[C@@H](CC)c1cccc(C#N)c1 [Example 436, 3-[(1S)-1-[2-(ethoxymethyl)-5-[4-(6-fluoro-2-methylpyridin-3-yI)benzenesulfonyl]-6-hydroxy-4-oxo-1,4-dihydropyrimidin-1-yl]propyl]benzonitrile] |
| 0.01 to 10 | CCOCc1nc(=O)c(S(=O)(=O)c2ccc(-c3ccnc(F)c3C)cc2)c(O)n1[C@@H](CC)c1cccc(C#N)c1 [Example 437, 3-[(1S)-1-[2-(ethoxymethyl)-5-[4-(2-fluoro-3-methylpyridin-4-yl)benzenesulfonyl]-6-hydroxy-4-oxo-1,4-dihydropyrimidin-1-yl]propyl]benzonitrile] |
| 0.01 to 10 | CC[C@@H](c1cccc(C#N)c1)n1c(CC2CC2)nc(=O)c(S(=O)(=O)c2ccc(-c3ccnc(F)c3C)cc2)c1O [Example 442, 3-[(1S)-1-[2-(cyclopropylmethyl)-5-[4-(2-fluoro-3-methylpyridin-4-yl)benzenesulfonyl]-6-hydroxy-4-oxo-1,4-dihydropyrimidin-1-yl]propyl]benzonitrile] |
| 0.01 to 10 | CC[C@@H](c1cccc(C#N)c1)n1c(CC2CC2)nc(=O)c(S(=O)(=O)c2ccc(-c3cccnc3C)cc2)c1O [Example 443, 3-[(1S)-1-[2-(cyclopropylmethyl)-6-hydroxy-5-[4-(2-methylpyridin-3-yl)benzenesulfonyl]-4-oxo-1,4-dihydropyrimidin-1-yl]propyl]benzonitrile] |
| 0.01 to 10 | CC[C@@H](c1cccc(C#N)c1)n1c(CC2CC2)nc(=O)c(S(=O)(=O)c2ccc(-c3ccc(F)nc3C)cc2)c1O [Example 444, 3-[(1S)-1-[2-(cyclopropylmethyl)-5-[4-(6-fluoro-2-methylpyridin-3-yl)benzenesulfonyl]-6-hydroxy-4-oxo-1,4-dihydropyrimidin-1-yl]propyl]benzonitrile] |
